# Columns and labels:
# Assay type in all cases: functional
# KB = experiment: Cytotoxicity against human KB cells after 72 hrs by MTT assay; conditions: read-out: ED50 (the source's name)
# SK-BR-3 = experiment: Cytotoxicity against human SKBR3 cells after 72 hrs by MTT assay; conditions: SK-BR-3, 72 h, read-out: ED50 (the source's name)
# [1] = Cytotoxicity against human KBVIN cells after 72 hrs by MTT assay; conditions: read-out: ED50 (the source's name)
# A549 = experiment: Cytotoxicity against human A549 cells after 72 hrs by MTT assay; conditions: A549, 72 h, read-out: ED50 (the source's name)
# DU-145 = experiment: Cytotoxicity against human DU145 cells after 72 hrs by MTT assay; conditions: DU-145, 72 h, read-out: ED50 (the source's name)
Compound,EC50 (KB),EC50 (SK-BR-3),EC50 [1],EC50 (A549),EC50 (DU-145)
Nc1cc(=O)oc2c1ccc1ccccc12,170 nM,130 nM,130 nM,110 nM,110 nM
O=c1cc(NC2CCCCC2)cc(-c2ccccc2)o1,16000 nM,10900 nM,9150 nM,9690 nM,7470 nM
O=c1cc(NC2CCCCC2)cc(/C=C/c2ccccc2)o1,2020 nM,1530 nM,1240 nM,1250 nM,1230 nM
COc1ccc(Nc2cc(C)oc(=O)c2)cc1,> 30000 nM,> 30000 nM,> 30000 nM,> 30000 nM,> 30000 nM
COc1ccc(Nc2cc(C(C)C)oc(=O)c2)cc1,> 30000 nM,> 30000 nM,> 30000 nM,> 30000 nM,> 30000 nM
CCCCCc1cc(Nc2ccc(OC)cc2)cc(=O)o1,10100 nM,4930 nM,4840 nM,4420 nM,5940 nM
COc1ccc(Nc2cc(C3CCCC3)oc(=O)c2)cc1,8380 nM,4730 nM,4980 nM,5420 nM,5420 nM
COc1ccc(Nc2cc(C3CCCCC3)oc(=O)c2)cc1,8320 nM,5290 nM,4390 nM,4620 nM,8610 nM
COc1ccc(Nc2cc(-c3ccccc3)oc(=O)c2)cc1,160 nM,79 nM,98 nM,93 nM,120 nM
COc1ccc(Nc2cc(/C=C/c3ccccc3)oc(=O)c2)cc1,150 nM,83 nM,100 nM,110 nM,110 nM
COc1ccc(Nc2cc(Cc3ccccc3)oc(=O)c2)cc1,–,1340 nM,1300 nM,1620 nM,1600 nM
COc1ccc(Nc2cc(-c3ccco3)oc(=O)c2)cc1,2660 nM,1760 nM,1460 nM,1910 nM,1950 nM
COc1ccc(Nc2cc(-c3ccc4ccccc4c3)oc(=O)c2)cc1,180 nM,130 nM,130 nM,150 nM,150 nM
O=c1cc(NC2CC2)cc(-c2ccccc2)o1,> 30000 nM,> 30000 nM,> 30000 nM,> 30000 nM,> 30000 nM
O=c1cc(N2CCCCC2)cc(-c2ccccc2)o1,> 30000 nM,> 30000 nM,> 30000 nM,> 30000 nM,> 30000 nM
O=c1cc(Nc2ccccc2)cc(-c2ccccc2)o1,130 nM,130 nM,150 nM,120 nM,98 nM
Cc1ccc(Nc2cc(-c3ccccc3)oc(=O)c2)cc1,64 nM,90 nM,59 nM,67 nM,73 nM
O=c1cc(Nc2ccc(Br)cc2)cc(-c2ccccc2)o1,320 nM,400 nM,240 nM,310 nM,340 nM
COc1ccccc1Nc1cc(-c2ccccc2)oc(=O)c1,350 nM,540 nM,490 nM,–,370 nM
COc1cccc(Nc2cc(-c3ccccc3)oc(=O)c2)c1,490 nM,740 nM,550 nM,630 nM,660 nM
